{"source": "paper PMC3042376", "about": "“The elicitation of a systemic resistance by Pseudomonas putida BTP1 in tomato involves the stimulation of two lipoxygenase isoforms” (BMC Plant Biology, 2011)", "molecular_target": "T1, TomLOXF (Solanum lycopersicum, UniProt C0KKU8)", "T1 construct": "gene loxF; predicted chloroplast transit peptide (54 residues, ChloroP) excluded; N-terminal His tag of pET28-a kept; E. coli BL21; about 100 kDa; full precursor 903 residues; partially purified on nickel", "T1 sequence (C0KKU8 55-902)": "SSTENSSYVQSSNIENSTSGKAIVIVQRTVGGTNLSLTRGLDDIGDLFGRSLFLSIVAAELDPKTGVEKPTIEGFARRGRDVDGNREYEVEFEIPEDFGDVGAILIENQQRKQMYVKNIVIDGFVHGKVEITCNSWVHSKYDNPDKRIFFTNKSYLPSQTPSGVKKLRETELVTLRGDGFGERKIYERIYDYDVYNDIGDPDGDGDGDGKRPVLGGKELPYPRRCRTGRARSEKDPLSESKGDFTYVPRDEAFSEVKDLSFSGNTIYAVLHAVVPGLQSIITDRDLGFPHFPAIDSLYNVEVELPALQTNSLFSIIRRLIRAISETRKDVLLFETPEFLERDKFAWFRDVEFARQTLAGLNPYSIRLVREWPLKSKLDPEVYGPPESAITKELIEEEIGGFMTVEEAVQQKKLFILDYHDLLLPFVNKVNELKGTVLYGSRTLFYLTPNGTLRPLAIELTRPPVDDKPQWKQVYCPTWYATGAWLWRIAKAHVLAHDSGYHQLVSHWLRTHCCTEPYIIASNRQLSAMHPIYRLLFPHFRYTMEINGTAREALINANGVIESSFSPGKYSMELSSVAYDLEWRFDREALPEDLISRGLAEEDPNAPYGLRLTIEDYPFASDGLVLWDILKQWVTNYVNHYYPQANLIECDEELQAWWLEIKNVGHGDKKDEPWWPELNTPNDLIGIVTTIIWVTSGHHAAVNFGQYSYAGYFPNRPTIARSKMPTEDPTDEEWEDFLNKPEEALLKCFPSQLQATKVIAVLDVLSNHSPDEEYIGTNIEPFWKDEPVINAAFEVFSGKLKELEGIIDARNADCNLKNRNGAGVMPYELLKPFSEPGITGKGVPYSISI", "assay": "hydroperoxide formation at […] nm; products by HPLC", "type": "biochemical", "conditions": "pH 6.0, room temperature, oxygenated phosphate buffer, partially purified enzyme"}
{"smiles": "CC/C=C\\C/C=C\\C/C=C\\CCCCCCCC(=O)O", "note": "[C18:3, linolenic acid]", "values": [{"measurement": "hydroperoxide formation at 234 nm; products by HPLC", "setting": "product 13-HPOT, preferred substrate", "value": "Partially-purified TOMLOXF showed a higher activity on linolenic acid than on linoleic acid"}]}
{"smiles": "CCCCC/C=C\\C/C=C\\CCCCCCCC(=O)O", "note": "[C18:2, linoleic acid]", "values": [{"measurement": "hydroperoxide formation at 234 nm; products by HPLC", "setting": "product 13-HPOD, weaker substrate", "value": "Partially-purified TOMLOXF showed a higher activity on linolenic acid than on linoleic acid"}]}
